From US6653258B1 (priority 1987, dated 2003)

Assays:
[1] = system: Erysiphe graminis; assay: Foliar fungal disease test on Erysiphe graminis, plants inoculated 24 hours before treatment (Table V); format: in vivo; set-up: key: 4: no disease; 3: trace −5% of disease on untreated plants; 6-25% of disease on untreated plants; 1: 26-59% of disease on untreated plants; 60-100% of disease on untreated plants; details: plants inoculated 24 hours before treatment
[2] = system: foliar fungal diseases of plants; format: in vivo; set-up: key to disease control grading, […] (VINE): 4: no disease; 3: trace −5% of disease on untreated plants; key to disease control grading, PUCCINIA RECONDITA (WHEAT) / disease control grading, VENTURIA INAEQUALIS (APPLE) / disease control grading, CERCOSPORA ARACHIDICOLA (PEANUT) / disease control grading, PH[…] (TOMATO) / disease control grading, P[…] (RICE): 4: no disease; 3: trace −5% of disease on untreated plants; 6-25% of disease on untreated plants; 1: 26-59% of disease on untreated plants; 60-100% of disease on untreated plants; details: applied to soil (roots) and foliage one or two days before inoculation; for disease control grading, CERCOSPORA ARACHIDICOLA (PEANUT): Cercospora arachidicola on peanut; for disease control grading, P[…] (RICE): P[…] on rice; for disease control grading, PH[…] (TOMATO): Ph[…] on tomato; for disease control grading, PUCCINIA RECONDITA (WHEAT): Puccinia recondita on wheat; for disease control grading, VENTURIA INAEQUALIS (APPLE): Venturia inaequalis on apple; for disease control grading, […] (VINE): […] on vine

Row | SMILES | disease control grading, ERYSIPHE GRAMINIS (BARLEY) [1] | disease control grading, CERCOSPORA ARACHIDICOLA (PEANUT) [2] | disease control grading, P[…] (RICE) [2] | disease control grading, PH[…] (TOMATO) [2] | disease control grading, PUCCINIA RECONDITA (WHEAT) [2] | disease control grading, VENTURIA INAEQUALIS (APPLE) [2] | disease control grading, […] (VINE) [2]
1 | CO/C=C(/C(=O)OC)c1ccccc1COc1ccc(Cl)cc1Cl [43 (Table I)] | 4 | 4 | 4 | 4 | 4 | 4 | 4
2 | CO/C=C(/C(=O)OC)c1ccccc1COc1c(Cl)cccc1Cl [44 (Table I)] | 4 | 3 (trace −5% of disease on untreated plants) | 2 (6-25% of disease on untreated plants) | 3 (trace −5% of disease on untreated plants) | 4 | 4 | 4
3 | CO/C=C(/C(=O)OC)c1ccccc1COc1ccc(Cl)c(Cl)c1 [45 (Table I)] | 3 (trace −5% of disease on untreated plants) | 4 | 4 | 4 | 4 | 4 | 4
4 | CO/C=C(/C(=O)OC)c1ccccc1COc1ccccn1 [67 (Table I)] | 4 | 4 | 4 | 4 | 4 | 4 | 4
5 | CO/C=C(/C(=O)OC)c1ccccc1COc1ccc2ccccc2n1 [149 (Table I)] | 4 | – | 4 | 4 | 4 | 4 | 4
6 | CO/C=C(/C(=O)OC)c1ccccc1COc1cccc(F)c1 [155 (Table I)] | 4 | 4 | 4 | 4 | 4 | 4 | 4
7 | CO/C=C(/C(=O)OC)c1ccccc1COc1ccc(F)cc1 [156 (Table I)] | 4 | 4 | 0 (60-100% of disease on untreated plants) | 4 | 4 | 4 | 4
8 | CO/C=C(/C(=O)OC)c1ccccc1COc1ccccc1Cl [157 (Table I)] | 4 | 4 | 4 | 3 (trace −5% of disease on untreated plants) | 4 | 4 | 4
9 | CO/C=C(/C(=O)OC)c1ccccc1COc1cc(Cl)ccc1Cl [158 (Table I)] | 4 | 4 | 4 | 3 (trace −5% of disease on untreated plants) | 4 | 4 | 4
10 | CO/C=C(/C(=O)OC)c1ccccc1COc1ccc(Br)cc1 [159 (Table I)] | 3 (trace −5% of disease on untreated plants) | 4 | 0 (60-100% of disease on untreated plants) | 3 (trace −5% of disease on untreated plants) | 4 | 4 | 0 (60-100% of disease on untreated plants)
